Results as given in patent US8076487B2, “Pyridone derivative and herbicide” (Kumiai Chemical Industry Co., Ltd., priority 2006, dated 2011).

How the values were obtained:
Type in all cases: in vivo
[1] = system: green foxtail (Setaria viridis (L.) P. Beauv.); assay: Test Example 3: herbicidal effect by application to upland field (foliage treatment); details: foliage treatment, plants grown two weeks, 1,000 g active ingredient per hectare, 14th day after application
Outline: (§1)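 Effect scores come from a standard grading 14 days after plants, grown from seed for two weeks in field soil in a greenhouse, were sprayed over the top with wettable powder in water at 1,000 g active ingredient per hectare.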

[2] = system: barnyardgrass (Echinochloa crus-galli (L.) P. Beauv. var. crus-galli); assay: as above; details: foliage treatment, plants grown two weeks, 1,000 g active ingredient per hectare, 14th day after application
Outline: as §1

[3] = system: velvetleaf (Abutilon theophrasti medicus); assay: as above; details: foliage treatment, plants grown two weeks, 1,000 g active ingredient per hectare, 14th day after application
Outline: as §1

[4] = system: slender amaranth (Amaranthus viridis L.); assay: as above; details: foliage treatment, plants grown two weeks, 1,000 g active ingredient per hectare, 14th day after application
Outline: as §1

[5] = system: green foxtail (Setaria viridis (L.) P. Beauv.); assay: Test Example 2: herbicidal effect by soil application to upland field; details: soil surface spray, upland field soil, 1,000 g active ingredient per hectare, 21st day after application
Outline: (§2)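 Using a small sprayer, we treat the soil surface of pots just after sowing and covering seeds. The aqueous wettable powder supplies 1,000 g a.i./ha in 1,000 L water/ha; after greenhouse growth, injury is scored on day 21 using a standard rating.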

[6] = system: barnyardgrass (Echinochloa crus-galli (L.) P. Beauv. var. crus-galli); assay: as above; details: soil surface spray, upland field soil, 1,000 g active ingredient per hectare, 21st day after application
Outline: as §2

[7] = system: velvetleaf (Abutilon theophrasti medicus); assay: as above; details: soil surface spray, upland field soil, 1,000 g active ingredient per hectare, 21st day after application
Outline: as §2

[8] = system: slender amaranth (Amaranthus viridis L.); assay: as above; details: soil surface spray, upland field soil, 1,000 g active ingredient per hectare, 21st day after application
Outline: as §2

[9] = system: heartshape false pickerelweed (Monochoria vaginalis (Burm.f.) C.Presl); assay: Test Example 1: herbicidal effect by soil application to paddy field; details: paddy field soil application; active ingredient 1,000 g per 1 hectare; wettable powder added dropwise to water surface the day after sowing; examined on the 21st day after application
Outline: (§3)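 Under greenhouse conditions, seeds sown on puddled paddy soil in 100 cm2 pots under 3 cm of standing water received the test compound; injury was assessed with a standard scoring scheme three weeks (day 21) after treatment.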

[10] = system: Japanese bulrush (Scirpus juncoides Roxb.); assay: as above; details: paddy field soil application; active ingredient 1,000 g per 1 hectare; wettable powder added dropwise to water surface the day after sowing; examined on the 21st day after application
Outline: as §3

[11] = system: early watergrass (Echinochloa oryzicola Vasing); assay: as above; details: paddy field soil application; active ingredient 1,000 g per 1 hectare; wettable powder added dropwise to water surface the day after sowing; examined on the 21st day after application
Outline: as §3

Q: Which “herbicidal effect (index), Green Foxtail” value [1] does the source give for `O=C1CCCC(O)=C1C(=O)c1ccc(C(F)(F)F)n(-c2ccccc2Cl)c1=O` [I-73] here?
A: 4 (70 to less than 90% of herbicidal effect and crop phytotoxicity)

Q: What about the “herbicidal effect (index), Barnyardgrass” value [2] of the same compound?
A: 5 (90% or more of herbicidal effect and crop phytotoxicity)

Q: And the “herbicidal effect (index), Velvetleaf” value [3]?
A: 5 (90% or more of herbicidal effect and crop phytotoxicity)

Q: What about the “herbicidal effect (index), Slender Amaranth” value [4] of the same compound?
A: 5 (90% or more of herbicidal effect and crop phytotoxicity)

Q: And the “herbicidal effect (index), Green Foxtail” value [5]?
A: 5 (90% or more of herbicidal effect and crop phytotoxicity)

Q: And the “herbicidal effect (index), Barnyardgrass” value [6]?
A: 5 (90% or more of herbicidal effect and crop phytotoxicity)

Q: And the “herbicidal effect (index), Velvetleaf” value [7]?
A: 5 (90% or more of herbicidal effect and crop phytotoxicity)

Q: What about the “herbicidal effect (index), Slender Amaranth” value [8] of the same compound?
A: 5 (90% or more of herbicidal effect and crop phytotoxicity)

Q: And the “herbicidal effect, Monochoria vaginalis (Burm. f.) C. Presl” value (“herbicidal effect, Monochoria vaginalis” for short) [9]?
A: 5 (90% or more of herbicidal effect and crop phytotoxicity)

Q: What about the “herbicidal effect, Scirpus juncoides Roxb.” value [10] of the same compound?
A: 5 (90% or more of herbicidal effect and crop phytotoxicity)

Q: What about the “herbicidal effect, Echinochloa oryzicola Vasing” value [11] of the same compound?
A: 5 (90% or more of herbicidal effect and crop phytotoxicity)

Q: For `O=C1CCCC(O)=C1C(=O)c1ccc(C(F)(F)F)n(-c2cccc(Cl)c2)c1=O` [I-74], which “herbicidal effect (index), Green Foxtail” value [1] is on record?
A: 5 (90% or more of herbicidal effect and crop phytotoxicity)

Q: What about the “herbicidal effect (index), Barnyardgrass” value [2] of the same compound?
A: 5 (90% or more of herbicidal effect and crop phytotoxicity)

Q: What about the “herbicidal effect (index), Velvetleaf” value [3] of the same compound?
A: 5 (90% or more of herbicidal effect and crop phytotoxicity)

Q: And the “herbicidal effect (index), Slender Amaranth” value [4]?
A: 5 (90% or more of herbicidal effect and crop phytotoxicity)

Q: What about the “herbicidal effect (index), Green Foxtail” value [5] of the same compound?
A: 5 (90% or more of herbicidal effect and crop phytotoxicity)

Q: What about the “herbicidal effect (index), Barnyardgrass” value [6] of the same compound?
A: 5 (90% or more of herbicidal effect and crop phytotoxicity)

Q: And the “herbicidal effect (index), Velvetleaf” value [7]?
A: 5 (90% or more of herbicidal effect and crop phytotoxicity)

Q: And the “herbicidal effect (index), Slender Amaranth” value [8]?
A: 5 (90% or more of herbicidal effect and crop phytotoxicity)

Q: What about the “herbicidal effect, Monochoria vaginalis” value [9] of the same compound?
A: 5 (90% or more of herbicidal effect and crop phytotoxicity)

Q: What about the “herbicidal effect, Scirpus juncoides Roxb.” value [10] of the same compound?
A: 5 (90% or more of herbicidal effect and crop phytotoxicity)

Q: What about the “herbicidal effect, Echinochloa oryzicola Vasing” value [11] of the same compound?
A: 5 (90% or more of herbicidal effect and crop phytotoxicity)

Q: Which “herbicidal effect (index), Green Foxtail” value [1] does the source give for `O=C1CCCC(O)=C1C(=O)c1ccc(C(F)(F)F)n(-c2ccc(Cl)cc2)c1=O` [I-75] here?
A: 5 (90% or more of herbicidal effect and crop phytotoxicity)

Q: What about the “herbicidal effect (index), Barnyardgrass” value [2] of the same compound?
A: 5 (90% or more of herbicidal effect and crop phytotoxicity)

Q: What about the “herbicidal effect (index), Velvetleaf” value [3] of the same compound?
A: 5 (90% or more of herbicidal effect and crop phytotoxicity)

Q: And the “herbicidal effect (index), Slender Amaranth” value [4]?
A: 5 (90% or more of herbicidal effect and crop phytotoxicity)

Q: What about the “herbicidal effect (index), Green Foxtail” value [5] of the same compound?
A: 5 (90% or more of herbicidal effect and crop phytotoxicity)

Q: And the “herbicidal effect (index), Barnyardgrass” value [6]?
A: 5 (90% or more of herbicidal effect and crop phytotoxicity)

Q: What about the “herbicidal effect (index), Velvetleaf” value [7] of the same compound?
A: 5 (90% or more of herbicidal effect and crop phytotoxicity)

Q: What about the “herbicidal effect (index), Slender Amaranth” value [8] of the same compound?
A: 5 (90% or more of herbicidal effect and crop phytotoxicity)

Q: And the “herbicidal effect, Monochoria vaginalis” value [9]?
A: 5 (90% or more of herbicidal effect and crop phytotoxicity)

Q: And the “herbicidal effect, Scirpus juncoides Roxb.” value [10]?
A: 5 (90% or more of herbicidal effect and crop phytotoxicity)

Q: What about the “herbicidal effect, Echinochloa oryzicola Vasing” value [11] of the same compound?
A: 5 (90% or more of herbicidal effect and crop phytotoxicity)
